Measurements reported in patent US20240150377A1, “MODULATORS OF CYSTIC FIBROSIS TRANSMEMBRANE CONDUCTANCE REGULATOR” (VERTEX PHARMACEUTICALS INCORPORATED, priority 2020, published 2024).

Target: T1, CFTR (Homo sapiens, UniProt P13569, DEL508-508)
T1 construct: endogenous in cells; host or cells: primary human bronchial epithelial cells from CF subjects (F508del/MF-HBE), differentiated at air-liquid interface
Assay: HBE2 assay: Ussing chamber assay of CFTR-mediated short-circuit currents
Format: cell-based
Conditions: F508del/MF-HBE cells, with 44 nM potentiator, 18-24 hours, 20% human serum; for Emax: read-out: HBE2 Max activity (%)
How it was run: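 Corrector activity read as CFTR-dependent ISC (μA/cm^2): peak forskolin current minus post-inhibitor steady state. Measured at 37 °C, voltage clamp at 0 mV, on F508del/MF-HBE epithelia grown >14 days air-liquid interface in Ussing chambers.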

T1 sequence (P13569 with tags, fused parts or gaps DEL508-508): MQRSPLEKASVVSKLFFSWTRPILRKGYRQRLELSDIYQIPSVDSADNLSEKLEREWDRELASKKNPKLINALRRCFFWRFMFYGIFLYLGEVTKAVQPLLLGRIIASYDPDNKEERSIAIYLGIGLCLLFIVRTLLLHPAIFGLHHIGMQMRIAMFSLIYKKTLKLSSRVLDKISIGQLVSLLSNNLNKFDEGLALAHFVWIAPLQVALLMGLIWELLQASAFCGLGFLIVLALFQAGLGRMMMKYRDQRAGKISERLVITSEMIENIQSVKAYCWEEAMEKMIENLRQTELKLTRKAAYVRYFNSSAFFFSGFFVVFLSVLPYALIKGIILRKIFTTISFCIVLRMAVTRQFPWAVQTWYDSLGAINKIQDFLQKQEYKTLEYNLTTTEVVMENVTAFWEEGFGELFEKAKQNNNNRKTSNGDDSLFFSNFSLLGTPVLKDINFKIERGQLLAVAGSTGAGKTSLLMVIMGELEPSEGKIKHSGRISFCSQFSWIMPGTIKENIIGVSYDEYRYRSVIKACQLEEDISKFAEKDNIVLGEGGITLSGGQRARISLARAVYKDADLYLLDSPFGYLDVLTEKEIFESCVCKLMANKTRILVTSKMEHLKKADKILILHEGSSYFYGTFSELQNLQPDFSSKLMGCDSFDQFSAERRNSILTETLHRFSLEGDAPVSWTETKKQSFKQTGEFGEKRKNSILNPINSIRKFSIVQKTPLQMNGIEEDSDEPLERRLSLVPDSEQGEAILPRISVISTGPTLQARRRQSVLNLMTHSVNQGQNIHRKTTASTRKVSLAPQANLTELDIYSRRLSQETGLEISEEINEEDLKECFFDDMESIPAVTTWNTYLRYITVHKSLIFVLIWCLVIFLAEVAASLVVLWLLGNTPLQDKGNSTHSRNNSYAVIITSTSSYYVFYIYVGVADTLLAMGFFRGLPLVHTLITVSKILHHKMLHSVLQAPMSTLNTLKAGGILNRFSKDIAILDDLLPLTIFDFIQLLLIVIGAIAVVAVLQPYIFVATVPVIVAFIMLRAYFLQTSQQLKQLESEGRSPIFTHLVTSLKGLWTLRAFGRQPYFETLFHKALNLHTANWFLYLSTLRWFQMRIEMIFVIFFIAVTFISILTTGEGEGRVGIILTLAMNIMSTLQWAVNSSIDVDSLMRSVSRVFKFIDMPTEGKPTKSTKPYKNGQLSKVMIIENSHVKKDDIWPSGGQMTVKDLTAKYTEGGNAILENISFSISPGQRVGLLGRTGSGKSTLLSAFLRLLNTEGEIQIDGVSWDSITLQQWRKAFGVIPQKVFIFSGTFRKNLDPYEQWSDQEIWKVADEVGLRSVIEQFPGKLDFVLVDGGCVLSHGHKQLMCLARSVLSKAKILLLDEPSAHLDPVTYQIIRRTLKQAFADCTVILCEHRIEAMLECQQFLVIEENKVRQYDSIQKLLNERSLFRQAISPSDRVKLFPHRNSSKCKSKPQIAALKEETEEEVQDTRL

In the case of Cc1cccc(C)c1-c1cc2nc(n1)NS(=O)(=O)c1cccc(c1)C(=O)N(Cc1coc(N(C)C3CCC3)n1)[C@H](CC(C)(C)C)CO2 [Compound 1318, (11R)-12-[[2-[Cyclobutyl(methyl)amino]oxazol-4-yl]methyl]-6-(2,6-dimethylphenyl)-11-(2,2-dimethylpropyl)-2,2-dioxo-9-oxa-2λ^6-thia-3,5,12,19-tetrazatricyclo[12.3.1.14,8]nonadeca-1(18),4(19),5,7,14,16-hexaen-13-one], the “HBE2 Activity at 3 μM (%)” value (3 μM) is reported as “+++ (+++ is >60+)”.
In the case of Cc1cccc(C)c1-c1cc2nc(n1)NS(=O)(=O)c1cccc(c1)C(=O)N(Cc1cnc(C)c(N(C)CC(C)C)n1)[C@H](CC(C)(C)C)CO2 [Compound 1322, (11R)-6-(2,6-Dimethylphenyl)-11-(2,2-dimethylpropyl)-12-[[6-[isobutyl(methyl)amino]-5-methyl-pyrazin-2-yl]methyl]-2,2-dioxo-9-oxa-2λ^6-thia-3,5,12,19-tetrazatricyclo[12.3.1.14,8]nonadeca-1(18),4(19),5,7,14,16-hexaen-13-one], the “HBE2 Activity at 3 μM (%)” value (3 μM corrector) is reported as “+++ (+++ is >60+)”.
Cc1cccc(C)c1-c1cc2nc(n1)NS(=O)(=O)c1cccc(c1)C(=O)N(Cc1cncc(N(C)C3CCC3)n1)[C@@H]1CN(C3CC4(CCCC4)C3)C[C@H]1O2 [Compound 1323, (3R,7R)-8-[[6-[Cyclobutyl(methyl)amino]pyrazin-2-yl]methyl]-19-(2,6-dimethylphenyl)-15,15-dioxo-5-spiro[3.4]octan-2-yl-2-oxa-15λ^6-thia-5,8,16,18,21-pentazatetracyclo[15.3.1.110,14.03,7]docosa-1(20),10,12,14(22),17(21),18-hexaen-9-one] was tested, and the “HBE2 Activity at 3 μM (%)” value (3 μM corrector) was “++ (++ is 30-60%)”.
In the case of Cc1cccc(C)c1-c1cc2nc(n1)NS(=O)(=O)c1cccc(c1)C(=O)N(Cc1cncc(N(C)C3CCC3)n1)[C@H](COC(C)C)CO2 [Compound 1324, (11R)-12-[[6-[Cyclobutyl(methyl)amino]pyrazin-2-yl]methyl]-6-(2,6-dimethylphenyl)-11-(isopropoxymethyl)-2,2-dioxo-9-oxa-2λ^6-thia-3,5,12,19-tetrazatricyclo[12.3.1.14,8]nonadeca-1(18),4(19),5,7,14,16-hexaen-13-one], the “HBE2 Activity at 3 μM (%)” value (3 μM corrector) is reported as “+++ (+++ is >60+)”.
In the case of CCC(C)(C)C[C@@H]1COc2cc(-c3c(C)cccc3C)nc(n2)NS(=O)(=O)c2cccc(c2)C(=O)N1Cc1cncc(N(C)C2CCC2)n1 [Compound 1329, 12-[[6-[cyclobutyl(methyl)amino]pyrazin-2-yl]methyl]-11-(2,2-dimethylbutyl)-6-(2,6-dimethylphenyl)-2,2-dioxo-9-oxa-2λ^6-thia-3,5,12,19-tetrazatricyclo[12.3.1.14,8]nonadeca-1(18),4,6,8(19),14,16-hexaen-13-one], the “HBE2 Activity at 3 μM (%)” value (3 μM corrector) is reported as “++ (++ is 30-60%)”.
In the case of Cc1cccc(C)c1-c1cc2nc(n1)NS(=O)(=O)c1cccc(c1)C(=O)N(Cc1cncc(N3CCC[C@H]3C)n1)[C@H](CC1CCCCC1)CO2 [Compound 1331, (11R)-11-(Cyclohexylmethyl)-6-(2,6-dimethylphenyl)-12-[[6-[(2R)-2-methylpyrrolidin-1-yl]pyrazin-2-yl]methyl]-2,2-dioxo-9-oxa-2^6-thia-3,5,12,19-tetrazatricyclo[12.3.1.14,8]nonadeca-1(18),4(19),5,7,14,16-hexaen-13-one], the “HBE2 Activity at 3 μM (%)” value (3 μM corrector) is reported as “+++ (+++ is >60+)”.
With Cc1cccc(C)c1-c1cc2nc(n1)NS(=O)(=O)c1cccc(c1)C(=O)N(Cc1cncc(N3CCCOC4CCC43)n1)[C@H](CC(C)(C)C)CO2 (stereo partly drawn) [Compound 1332, (11R)-6-(2,6-Dimethylphenyl)-11-(2,2-dimethylpropyl)-12-[[6-(2-oxa-6-azabicyclo[5.2.0]nonan-6-yl)pyrazin-2-yl]methyl]-2,2-dioxo-9-oxa-2λ^6-thia-3,5,12,19-tetrazatricyclo[12.3.1.14,8]nonadeca-1(18),4(19),5,7,14,16-hexaen-13-one] the “HBE2 Activity at 3 μM (%)” value (3 μM corrector) was “+++ (+++ is >60+)”.
In the case of Cc1cccc(C)c1-c1cc2nc(n1)NS(=O)(=O)c1cccc(c1)C(=O)N(Cc1cnc3oc(C(C)C)cc3n1)[C@H](CC(C)(C)C)CO2 [Compound 1333, (11R)-6-(2,6-Dimethylphenyl)-11-(2,2-dimethylpropyl)-12-[(6-isopropylfuro[2,3-b]pyrazin-2-yl)methyl]-2,2-dioxo-9-oxa-2λ6-thia-3,5,12,19-tetrazatricyclo[12.3.1.14,8]nonadeca-1(18),4(19),5,7,14,16-hexaen-13-one], the “HBE2 Activity at 3 μM (%)” value (3 μM corrector) is reported as “+++ (+++ is >60+)”.
For Cc1cccc(C)c1-c1cc2nc(n1)NS(=O)(=O)c1cccc(c1)C(=O)N(Cc1cnc3cc(C(C)C)n(C)c3n1)[C@H](CC1CCCC1)CO2 [Compound 1334, (11R)-11-(Cyclopentylmethyl)-6-(2,6-dimethylphenyl)-12-[(6-isopropyl-5-methyl-pyrrolo[2,3-b]pyrazin-3-yl)methyl]-2,2-dioxo-9-oxa-2λ^6-thia-3,5,12,19-tetrazatricyclo[12.3.1.14,8]nonadeca-1(18),4(19),5,7,14,16-hexaen-13-one], the “HBE2 Activity at 3 μM (%)” value (3 μM corrector) was “+++ (+++ is >60+)”.
For Cc1cccc(C)c1-c1cc2nc(n1)NS(=O)(=O)c1cccc(c1)C(=O)N(Cc1cncc(N(C)C3CCC3)n1)[C@H](CCC1(C)CC1)CO2 [Compound 1336, 12-[[6-[cyclobutyl(methyl)amino]pyrazin-2-yl]methyl]-6-(2,6-dimethylphenyl)-11-[2-(1-methylcyclopropyl)ethyl]-2,2-dioxo-9-oxa-2λ^6-thia-3,5,12,19-tetrazatricyclo[12.3.1.14,8]nonadeca-1(18),4(19),5,7,14,16-hexaen-13-one], the “HBE2 Activity at 3 μM (%)” value (3 μM corrector) was “+++ (+++ is >60+)”.
For Cc1cccc(C)c1-c1cc2nc(n1)NS(=O)(=O)c1cccc(c1)C(=O)N(Cc1cncc(N3CCC[C@H]3C(C)C)n1)[C@H](COC1CC1)CO2 [Compound 1341, (11R)-11-(Cyclopropoxymethyl)-6-(2,6-dimethylphenyl)-12-[[6-[(2S)-2-isopropylpyrrolidin-1-yl]pyrazin-2-yl]methyl]-2,2-dioxo-9-oxa-2^6-thia-3,5,12,19-tetrazatricyclo[12.3.1.14,8]nonadeca-1(18),4(19),5,7,14,16-hexaen-13-one], the “HBE2 Activity at 3 μM (%)” value (3 μM corrector) was “+++ (+++ is >60+)”.
COCCN(C)c1nc(CN2C(=O)c3cccc(c3)S(=O)(=O)Nc3nc(cc(-c4c(C)cccc4C)n3)OC[C@H]2CC(C)(C)C)co1 [Compound 1409] was tested, and the “HBE2 Activity at 3 μM (%)” value (3 μM) was “+++ (+++ is >60+)”.
Cc1cccc(C)c1-c1cc2nc(n1)NS(=O)(=O)c1cccc(c1)C(=O)N(Cc1cc(C(C)C)n(C)n1)[C@H](CC(C)(C)C)CO2 [Compound 1413] was tested, and the “HBE2 Activity at 3 μM (%)” value (3 μM) was “++ (++ is 30-60%)”.
With COC[C@H]1CCCCN1c1cncc(CN2C(=O)c3cccc(c3)S(=O)(=O)Nc3nc(cc(-c4c(C)cccc4C)n3)OC[C@H]2CC(C)(C)C)n1 [Compound 1539] the EC50 was < 1 µM and the Emax was > 60%.
In the case of Cc1cccc(C)c1-c1cc2nc(n1)NS(=O)(=O)c1cccc(c1)C(=O)N(Cc1cncc(N3CC[C@@H]4COC[C@@H]43)n1)[C@H](CC(C)(C)C)CO2 [Compound 1541], the EC50 is reported as < 1 µM and the Emax is reported as > 60%.
Cc1cccc(C)c1-c1cc2nc(n1)NS(=O)(=O)c1cccc(c1)C(=O)N(Cc1ncc(N3CCC(F)(F)C3)cn1)[C@H](CC1(C)CC1)CO2 [Compound 1548] was tested, and the “HBE2 Activity at 3 μM (%)” value (3 μM) was “+++ (+++ is >60+)”.
COC[C@@H]1CCN1c1cncc(CN2C(=O)c3cccc(c3)S(=O)(=O)Nc3nc(cc(-c4c(C)cccc4C)n3)OC[C@H]2CC(C)(C)C)n1 [Compound 1549] was tested, and the “HBE2 Activity at 3 μM (%)” value (3 μM) was “+++ (+++ is >60+)”, the EC50 was < 1 µM and the Emax was > 60%.
